Results on 23 compounds are retold here after US20230174556A1, “COMPOUNDS AS PROTEIN KINASE INHIBITORS” (Fochon Biosciences, Ltd., priority 2020, published 2023).

The test relates to OCI-LY10 (PI3Kδ dependent) cells. Description: OCI-LY10 cell proliferation assay (MTS). The test is classed as cell-based. To be noted: inhibition of OCI-LY10 cells proliferation, 72 h incubation, MTS readout at 490 nm. The protocol:
MTS testing kit was purchased from Promega (Madison, WI, USA). The RPMI-1640, Fetal bovine serum and Penicillin-Streptomycin were purchased from BI (Biological Industries, Beit Haemek, Israel). Dimethyl sulfoxide (DMSO) was purchased from Sigma (St. Louis., MO, USA). OCI-LY10 cells were cultured in RPMI1640 supplemented with Penicillin-Streptomycin and 10% FBS.
To investigate whether a compound is able to inhibit the activity of PI3Kδ in cells, a mechanism-based assay using OCI-LY10 (PI3Kδ dependent) cells was developed. In this assay, inhibition of PI3Kδ was detected by the inhibition of OCI-LY10 cells proliferation. Cells were plated into 96-well plates at a density of 10000 cells/well. Plates were incubated at 37° C., with 5 % CO2 for 4 h. Compounds were serially diluted and added to the plates with the final compound concentrations as 10000, 3333.3, 1111.1, […], 123.5, 41.2, 13.7, 4.6 and 1.5 nM. Plates were incubated at 37° C., with 5 % CO2 for 72 h. 20 µl MTS was added into each well and the plates were incubated at 37° C., with 5 % CO2 for exactly 2 h. The absorbance was measured by a microplate reader at 490 nm. IC50 was calculated using GraphPad Prism 5.0 software.

The term IC50 denotes the midpoint of a concentration-inhibition curve. A high value points to weaker potency. With `CC(C)Oc1ccc(-c2nn([C@@H](C)c3cc4scc(Cl)n4c(=O)c3-c3ccccc3)c3ncnc(N)c23)cn1` [Example 86, (S)-7-(1-(4-amino-3-(6-isopropoxypyridin-3-yl)-1H-pyrazolo[3,4-d]pyrimidin-1-yl)ethyl)-3-chloro-6-phenyl-5H-thia zolo [3,2-α] pyridin-5-one], half-maximal inhibition (IC50) was put at 2 nM.
`COc1ncc(-c2nn([C@@H](C)c3cc4scc(C)n4c(=O)c3-c3cccc(F)c3)c3ncnc(N)c23)cn1` [Example 103, (S)-7-(1-(4-amino-3-(2-methoxypyrimidin-5-yl)-1H-pyrazolo[3,4-d]pyrimidin-1-yl)ethyl)-6-(3-fluorophenyl)-3-met hyl-5H-thiazolo[3,2-α]pyridin-5-one] came in with an IC50 of 22 nM.
In turn, `CC(C)Oc1ncc(-c2nn([C@@H](C)c3cc4scc(Cl)n4c(=O)c3-c3ccccc3)c3ncnc(N)c23)cc1F` [Example 94, (S)-7-(1-(4-amino-3-(5-fluoro-6-isopropoxypyridin-3-yl)-1H-pyrazolo[3,4-d]pyrimidin-1-yl)ethyl)-3-chloro-6-phenyl-5H-thiazolo[3,2-α]pyridin-5-one] yielded a half-inhibitory concentration (IC50) of 30 nM.
In turn, `Cc1csc2nc([C@H](C)n3nc(-c4ccc(OC(C)C)c(C#N)c4)c4c(N)ncnc43)c(-c3cccc(F)c3)c(=O)n12` [Example 101, (S)-5-(4-amino-1-(1-(6-(3-fluoropheny 1)-3-methyl-5-oxo-5H-thiazolo[3,2-α]pyrimidin-7-yl)ethyl)-1H-pyrazolo[3,4-d]pyrimidin-3-yl)-2-isopropoxybenzon itrile] came in with an IC50 of 18 nM.
Same read-out and setting: the value for `C[C@@H](c1cc2scc(Cl)n2c(=O)c1-c1cccc(F)c1)n1nc(-c2ccc(OC(F)F)c(F)c2)c2c(N)ncnc21` [Example 66, (S)-7-(1-(4-amino-3-(4-(difluoromethoxy)-3-fluorophenyl)-1H-pyrazolo[3,4-d]pyrimidin-1-yl)ethyl)-3-chloro-6-(3-fluorophenyl)-5H-thiazolo[3,2-α]pyrid in-5-one] was 5 nM; that for `Cc1csc2cc([C@H](C)n3nc(-c4ccc(OC5CC5)c(F)c4)c4c(N)ncnc43)c(-c3ccccc3)c(=O)n12` [Example 17, (S)-7-(1-(4-amino-3-(4-cyclopropoxy-3-fluoropheny1)-1H-pyrazolo[3,4-d]pyrimidin-1-yl)ethyl)-3-methyl-6-phenyl-5H-thiazolo[3,2-a]pyridin-5-one] was 65 nM.
Compound `COc1ccc(-c2nn([C@@H](C)c3cc4scc(Cl)n4c(=O)c3-c3ccccc3)c3ncnc(N)c23)cc1NS(C)(=O)=O` [Example 44, (S)-N-(5-(4-amino-1-(1-(3-chloro-5-oxo-6-phenyl-5H-thiazolo[3,2-a]pyridin-7-yl)ethyl)-1H-pyrazolo[3,4-d]pyrimidin-3-yl)-2-methoxyphenyl)methanesul fonamide] yielded an IC50 (Homo sapiens, OCI-Ly10, 72 h) of 40 nM.
Where the note is “Homo sapiens, OCI-Ly10, 72 h”, `Cc1csc2cc([C@H](C)n3nc(-c4ccc(OC(F)F)c(F)c4)c4c(N)ncnc43)c(-c3cccc(F)c3)c(=O)n12` [Example 14, (S)-7-(1-(4-amino-3-(4-(difluoromethoxy)-3-fluorophenyl)-1H-pyrazolo[3,4-d]pyrimidin-1-yl)ethyl)-6-(3-fluorophenyl)-3-methyl-5H-thiazolo[3,2-a]pyrid in-5-one] registered an IC50 of 1 nM.
For the compound “(S)-N-(5-(4-amino-1-(1-(3-methyl-5-o xo-6-phenyl-5H-thiazolo[3,2-α]pyridin -7-yl)ethyl)-1H-pyrazolo[3,4-d]pyrimi din-3-yl)-2-methoxypyridin-3-yl)meth anesulfonamide [Example 76]”, the IC50 was 1 nM.
On the same count and under the same terms, the value for `Cc1csc2cc([C@H](C)n3nc(-c4ccc(OC(C)C)c(C#N)c4)c4c(N)ncnc43)c(-c3cccc(F)c3)c(=O)n12` [Example 83, (S)-5-(4-amino-1-(1-(6-(3-fluorophenyl)-3-methyl-5-oxo-5H-thiazolo[3,2-α]pyridin-7-yl)ethyl)-1H-pyrazolo[3,4-d]pyrimidin-3-yl)-2-isopropoxybenzonitrile] was 1 nM.
With `Cc1csc2cc([C@H](C)n3nc(-c4ccc(OC5CC5)c(F)c4)c4c(N)ncnc43)c(-c3cccc(F)c3)c(=O)n12` [Example 16, (S)-7-(1-(4-amino-3-(4-cyclopropoxy-3-fluorophenyl)-1H-pyrazolo[3,4-d]pyrimidin-1-yl)ethyl)-6-(3-fluorophenyl) -3-methyl-5H-thiazolo[3,2-a]pyridin-5-one], inhibition (Homo sapiens, OCI-Ly10, 72 h) was half-maximal at 26 nM (IC50).
`CC(C)Oc1ccc(-c2nn([C@@H](C)c3cc4scc(Cl)n4c(=O)c3-c3cccc(F)c3)c3ncnc(N)c23)cn1` [Example 87, (S)-7-(1-(4-amino-3-(6-isopropoxypyridin-3-yl)-1H-pyrazolo[3,4-d]pyrimidin-1-yl)ethyl)-3-chloro-6-(3-fluoropheny 1)-5H-thiazol[3,2-α]pyridin-5-one] returned an IC50 of 64 nM.
For `CC(C)Oc1ccc(-c2nn([C@H](c3cc4scc(Cl)n4c(=O)c3-c3cccc(F)c3)C3CC3)c3ncnc(N)c23)cc1F` [Example 11, (S)-7-((4-amino-3-(3-fluoro-4-isopropoxyphenyl)-1H-pyrazolo[3,4-d]pyrimidin-1-yl)(cyclopropyl)methyl)-3-chlor o-6-(3-fluorophenyl)-5H-thiazolo[3,2-a]pyridin-5-one], half-maximal inhibition (Homo sapiens, OCI-Ly10, 72 h) (IC50) was put at 1 nM.
The same measure, in the same setting: next, `COc1ncc(-c2nn([C@@H](C)c3cc4scc(Cl)n4c(=O)c3-c3cccc(F)c3)c3ncnc(N)c23)cc1NS(C)(=O)=O` [Example 79, (S)-N-(5-(4-amino-1-(1-(3-chloro-6-(3-fluorophenyl)-5-oxo-5H-thiazolo[3,2-a]pyridin-7-yl)ethyl)-1H-pyrazolo[3,4-d]pyrimidin-3-yl)-2-methoxypyridin-3-yl)methanesulfonamide]: 2 nM.
The same measure, in the same setting: the value for `Cc1csc2nc([C@H](C)n3nc(-c4ccc(OC(C)C)c(F)c4)c4c(N)ncnc43)c(-c3ccccc3)c(=O)n12` [Example 8, (S)-7-(1-(4-amino-3-(3-fluoro-4-isopropoxyphenyl)-1H-pyrazolo[3,4-d]pyrimidin-1-yl)ethyl)-3-methyl-6-phenyl-5H -thiazolo[3,2-a]pyrimidin-5-one] was 6 nM.
`C[C@@H](c1cc2scc(Cl)n2c(=O)c1-c1ccccc1)n1nc(-c2ccc(OC(F)F)c(F)c2)c2c(N)ncnc21` [Example 67, (S)-7-(1-(4-amino-3-(4-(difluoromethoxy)-3-fluorophenyl)-1H-pyrazolo[3,4-d]pyrimidin-1-yl)ethyl)-3-chloro-6-ph enyl-5H-thiazolo[3,2-α]pyridin-5-one] had an IC50 of 1 nM.
The same measure, in the same setting: next, `Cc1csc2nc([C@H](C)n3nc(-c4cnc(OC(C)C)c(F)c4)c4c(N)ncnc43)c(-c3cccc(F)c3)c(=O)n12` [Example 105, (S)-7-(1-(4-amino-3-(5-fluoro-6-isopropoxypyridin-3-yl)-1H-pyrazolo[3,4-d]pyrimidin-1-yl)ethyl)-6-(3-fluorophenyl)-3-methyl-5H-thiazolo[3,2-α]pyrimidin-5-one]: 70 nM.
In turn, `Cc1csc2nc([C@H](C)n3nc(-c4cnc(OC(C)C)c(C#N)c4)c4c(N)ncnc43)c(-c3cccc(F)c3)c(=O)n12` [Example 100] showed an IC50 (Homo sapiens, OCI-Ly10, 72 h) of 1 nM.
For `Cc1csc2cc([C@H](C)n3nc(-c4cnc(OC(C)C)c(F)c4)c4c(N)ncnc43)c(-c3ccccc3)c(=O)n12` [Example 20, (S)-7-(1-(4-amino-3-(5-fluoro-6-isopropoxypyridin-3-yl)-1H-pyrazolo[3,4-d]pyrimidin-1-yl)ethyl)-3-methyl-6-phenyl-5H-thiazolo[3,2-a]pyridin-5-one], the IC50 (Homo sapiens, OCI-Ly10, 72 h) came out at 1 nM.
`Cc1csc2nc([C@H](C)n3nc(-c4cnc(OC(C)C)c(C#N)c4)c4c(N)ncnc43)c(-c3cccc(F)c3)c(=O)n12` [Example 106, (S)-5-(4-amino-1-(1-(6-(3-fluoropheny 1)-3-methyl-5-oxo-5H-thiazolo[3,2-α]pyrimidin-7-yl)ethyl)-1H-pyrazolo[3,4-d]pyrimidin-3-yl)-2-isopropoxynicotin onitrile] had a half-inhibitory concentration (IC50) of 43 nM.
Still for that read-out and setting: next, `COc1ncc(-c2nn([C@@H](C)c3cc4scc(Cl)n4c(=O)c3-c3ccccc3)c3ncnc(N)c23)cc1NS(C)(=O)=O` [Example 78, (S)-N-(5-(4-amino-1-(1-(3-chloro-5-oxo-6-phenyl-5H-thiazolo[3,2-α]pyridin-7-yl)ethyl)-1H-pyrazolo[3,4-d]pyrimidin-3-yl)-2-methoxypyridin-3-yl)metha nesulfonamide]: 3 nM.
In the case of `CC(C)Oc1ccc(-c2nn([C@@H](C)c3cc4scc(Cl)n4c(=O)c3-c3cccc(F)c3)c3ncnc(N)c23)cc1C#N` [Example 85, (S)-5-(4-amino-1-(1-(3-chloro-6-(3-fluorophenyl)-5-oxo-5H-thiazolo[3,2-α]pyridin-7-yl)ethyl)-1H-pyrazolo[3,4-d]pyrimidin-3-yl)-2-isopropoxybenzonitrile], the IC50 is 8 nM.
With `Cc1csc2nc([C@H](C)n3nc(-c4ccc(OC(C)C)c(F)c4)c4c(N)ncnc43)c(-c3cccc(F)c3)c(=O)n12` [Example 7, (S)-7-(1-(4-amino-3-(3-fluoro-4-isopropoxyphenyl)-1H-pyrazolo[3,4-d]pyrimidin-1-yl)ethyl)-6-(3-fluorophenyl)-3-methyl-5H-thiazolo[3,2-a]pyrimidin-5-one], the midpoint of inhibition (Homo sapiens, OCI-Ly10, 72 h), the IC50, lay at 4 nM.
